# Experimental data published in ChEMBL document CHEMBL1201862, “PubChem BioAssay data set” (2004).
# Active and inactive are the calls of the source.
# Legend:
# [1] = biological target: T1, Small ubiquitin-related modifier 1 (Homo sapiens, UniProt P63165); experiment: SUMO1 protein interaction blockers, potency – biochemical, fluorescence polarization, uHTS hits, dose response (AID 624382); type: functional; settings: read-out: IC50_Mean
# [2] = biological target: Beta-lactamase (Pseudomonas aeruginosa, UniProt Q79MP6);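 note: biochemical dose-response test of metallo-beta-lactamase enzyme inhibition, read out by epi-absorbance; purified recombinant IMP-1 metallo-beta-lactamase with nitrocefin as substrate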
# Chain of Beta-lactamase (Pseudomonas aeruginosa, UniProt Q79MP6) (Q79MP6 whole entry): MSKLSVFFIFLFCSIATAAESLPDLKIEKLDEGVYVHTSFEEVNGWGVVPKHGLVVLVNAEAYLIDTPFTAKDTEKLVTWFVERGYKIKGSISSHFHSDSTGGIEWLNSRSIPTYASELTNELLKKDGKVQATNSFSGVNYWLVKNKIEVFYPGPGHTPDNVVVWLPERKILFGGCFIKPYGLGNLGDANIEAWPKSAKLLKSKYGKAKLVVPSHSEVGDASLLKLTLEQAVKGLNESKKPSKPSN
# [3] = biological target: T1, Small ubiquitin-related modifier 1; experiment: SUMO1 protein-protein binding blockers, potency – biochemical, FRET, dose response (AID 624383); type: functional; settings: read-out: IC50_Mean
# [4] = biological target: Beta-lactamase (Salmonella choleraesuis (strain SC-B67), UniProt Q5J463)
# Chain of Beta-lactamase (Salmonella choleraesuis (strain SC-B67), UniProt Q5J463) (Q5J463 whole entry): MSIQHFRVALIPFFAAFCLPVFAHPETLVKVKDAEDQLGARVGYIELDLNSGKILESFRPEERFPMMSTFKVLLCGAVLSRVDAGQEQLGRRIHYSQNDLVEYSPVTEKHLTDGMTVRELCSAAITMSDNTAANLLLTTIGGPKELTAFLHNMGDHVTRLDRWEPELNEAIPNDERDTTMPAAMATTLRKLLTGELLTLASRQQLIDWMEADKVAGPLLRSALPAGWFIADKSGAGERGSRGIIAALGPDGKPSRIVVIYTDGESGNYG
# [5] = biological target: Adenosylmethionine-8-amino-7-oxononanoate aminotransferase (Mycobacterium tuberculosis, UniProt P9WQ81); experiment: Mycobacterium tuberculosis BioA enzyme inhibitor Measured in Biochemical System Using Plate Reader - 2163-02_Inhibitor_Dose_CherryPick_Activity.; type: functional, Mycobacterium tuberculosis UT205
# Chain of Adenosylmethionine-8-amino-7-oxononanoate aminotransferase (P9WQ81 whole entry): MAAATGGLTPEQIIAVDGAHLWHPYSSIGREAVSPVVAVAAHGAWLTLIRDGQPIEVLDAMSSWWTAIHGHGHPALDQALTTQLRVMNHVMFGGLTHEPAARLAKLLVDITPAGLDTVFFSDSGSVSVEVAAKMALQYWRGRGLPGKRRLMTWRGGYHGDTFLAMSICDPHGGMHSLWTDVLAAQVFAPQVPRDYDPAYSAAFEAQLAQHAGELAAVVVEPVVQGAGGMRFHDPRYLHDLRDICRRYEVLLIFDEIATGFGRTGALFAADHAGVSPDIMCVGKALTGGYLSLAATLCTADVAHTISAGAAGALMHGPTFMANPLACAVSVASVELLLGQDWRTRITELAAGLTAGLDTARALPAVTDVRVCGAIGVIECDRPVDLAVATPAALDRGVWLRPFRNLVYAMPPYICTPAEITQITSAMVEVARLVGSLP
# [6] = biological target: T2, Leucine aminopeptidase (Plasmodium falciparum 3D7, UniProt Q8IL11); experiment: P. falciparum M17LAP inhibitors, primary screen, biochemical, fluorogenic H-Leu-NHMec substrate, 1536-well (AID 1619); type: functional
# T2 sequence (Q8IL11 whole entry): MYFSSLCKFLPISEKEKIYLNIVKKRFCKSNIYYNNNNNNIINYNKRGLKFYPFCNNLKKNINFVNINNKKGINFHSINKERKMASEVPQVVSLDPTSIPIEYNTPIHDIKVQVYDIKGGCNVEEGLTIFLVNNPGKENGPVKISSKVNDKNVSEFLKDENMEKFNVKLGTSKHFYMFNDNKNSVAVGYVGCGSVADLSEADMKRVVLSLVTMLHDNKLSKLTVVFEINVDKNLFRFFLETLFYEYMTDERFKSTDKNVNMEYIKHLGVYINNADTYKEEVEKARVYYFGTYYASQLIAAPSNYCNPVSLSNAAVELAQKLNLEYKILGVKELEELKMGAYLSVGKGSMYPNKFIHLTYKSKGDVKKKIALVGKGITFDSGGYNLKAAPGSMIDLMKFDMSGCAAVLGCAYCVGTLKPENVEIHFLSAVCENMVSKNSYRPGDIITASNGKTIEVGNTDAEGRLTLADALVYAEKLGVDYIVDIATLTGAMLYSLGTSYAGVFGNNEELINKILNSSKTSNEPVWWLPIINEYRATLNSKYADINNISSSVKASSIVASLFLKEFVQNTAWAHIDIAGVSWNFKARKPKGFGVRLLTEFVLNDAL
# [7] = blockers of CRF-binding protein–CRF-R2 complex – cell-based, uHTS hits, 384-well, dose response (AID 651639); type: functional, Homo sapiens; settings: read-out: IC50_Mean
# [8] = biological target: T3, Corticotropin-releasing factor receptor 2/Corticotropin-releasing factor-binding protein (Homo sapiens, UniProt P24387+Q13324); experiment: Dose Response confirmation of uHTS hits for small molecule antagonists of the CRF-binding protein and CRF-R2 receptor complex.; type: functional; settings: read-out: IC50_Mean
# T3 sequence (Q13324 whole entry): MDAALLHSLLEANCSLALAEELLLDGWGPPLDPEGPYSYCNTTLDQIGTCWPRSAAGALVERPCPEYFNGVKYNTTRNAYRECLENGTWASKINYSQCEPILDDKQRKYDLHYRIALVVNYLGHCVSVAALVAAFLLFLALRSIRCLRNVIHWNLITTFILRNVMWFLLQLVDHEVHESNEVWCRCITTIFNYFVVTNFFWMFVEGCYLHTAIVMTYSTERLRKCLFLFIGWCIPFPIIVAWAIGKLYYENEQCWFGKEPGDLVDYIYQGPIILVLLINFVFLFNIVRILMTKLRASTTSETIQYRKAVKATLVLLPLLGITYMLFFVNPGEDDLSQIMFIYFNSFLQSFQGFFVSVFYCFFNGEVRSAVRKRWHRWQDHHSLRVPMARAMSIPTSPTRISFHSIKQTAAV
# T3 sequence (P24387 whole entry): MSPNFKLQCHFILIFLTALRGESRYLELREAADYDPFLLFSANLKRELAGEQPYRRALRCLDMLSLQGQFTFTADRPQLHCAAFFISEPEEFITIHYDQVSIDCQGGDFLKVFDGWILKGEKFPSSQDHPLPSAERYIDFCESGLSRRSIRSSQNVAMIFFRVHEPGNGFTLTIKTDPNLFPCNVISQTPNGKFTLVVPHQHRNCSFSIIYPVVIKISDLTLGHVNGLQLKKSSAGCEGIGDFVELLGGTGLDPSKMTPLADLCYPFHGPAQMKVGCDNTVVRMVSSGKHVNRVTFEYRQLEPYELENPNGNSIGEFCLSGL
# [9] = biological target: Photoreceptor-specific nuclear receptor (Homo sapiens, UniProt Q9Y5X4); type: functional, cell-based;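 note: CHO-S cells with Gal4-NCOR and VP16-NR2E3 two-hybrid luciferase reporter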
# Chain of Photoreceptor-specific nuclear receptor (Q9Y5X4 whole entry, the tested form may be a part): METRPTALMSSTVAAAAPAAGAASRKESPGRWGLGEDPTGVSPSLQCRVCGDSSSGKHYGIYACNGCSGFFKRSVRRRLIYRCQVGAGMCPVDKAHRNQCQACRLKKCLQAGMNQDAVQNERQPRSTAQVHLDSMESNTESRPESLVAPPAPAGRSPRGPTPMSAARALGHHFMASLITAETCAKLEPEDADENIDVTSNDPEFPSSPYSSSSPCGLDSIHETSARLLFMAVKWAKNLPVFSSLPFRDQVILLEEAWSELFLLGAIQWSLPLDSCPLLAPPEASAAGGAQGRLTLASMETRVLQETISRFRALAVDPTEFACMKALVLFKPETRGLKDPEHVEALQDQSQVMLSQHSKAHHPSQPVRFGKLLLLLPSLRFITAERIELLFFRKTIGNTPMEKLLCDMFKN
# [10] = biological target: T3, Corticotropin-releasing factor receptor 2/Corticotropin-releasing factor-binding protein; experiment: activators of CRF receptor 2 with binding protein – uHTS hits, confirmation (AID 602473); type: functional; settings: read-out: EC50_Mean
# [11] = biological target: T4, Microphthalmia-associated transcription factor (Homo sapiens, UniProt O75030); experiment: reducers of TRPM1 reporter luminescence, concentration series – cell-based, SK-MEL-5, cherry-picked, set 3, MITF inhibitor project, dose response (AID 493073); type: functional;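 note: SK-MEL-5 melanoma cells with luciferase driven by the MITF target TRPM1 promoter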
# T4 sequence (O75030 whole entry): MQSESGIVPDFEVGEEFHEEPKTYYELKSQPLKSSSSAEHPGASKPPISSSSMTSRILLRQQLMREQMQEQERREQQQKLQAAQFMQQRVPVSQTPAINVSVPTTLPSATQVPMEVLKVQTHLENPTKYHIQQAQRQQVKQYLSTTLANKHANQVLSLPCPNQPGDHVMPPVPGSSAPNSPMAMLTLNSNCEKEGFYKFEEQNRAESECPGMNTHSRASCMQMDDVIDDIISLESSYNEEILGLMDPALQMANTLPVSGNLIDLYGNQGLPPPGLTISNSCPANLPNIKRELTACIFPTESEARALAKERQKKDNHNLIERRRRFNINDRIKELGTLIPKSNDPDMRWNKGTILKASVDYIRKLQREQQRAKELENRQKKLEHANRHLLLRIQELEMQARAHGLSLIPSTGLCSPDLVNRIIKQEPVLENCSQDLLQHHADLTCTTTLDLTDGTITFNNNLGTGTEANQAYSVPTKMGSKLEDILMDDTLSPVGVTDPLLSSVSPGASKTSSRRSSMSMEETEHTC
# [12] = biological target: T5, Caspase-6 (Homo sapiens, UniProt P55212); experiment: inhibition of CASP6 peptide cleavage – biochemical, VEID-R110 fluorescence, cherry-pick, dose response (AID 720632)
# T5 sequence (P55212 whole entry): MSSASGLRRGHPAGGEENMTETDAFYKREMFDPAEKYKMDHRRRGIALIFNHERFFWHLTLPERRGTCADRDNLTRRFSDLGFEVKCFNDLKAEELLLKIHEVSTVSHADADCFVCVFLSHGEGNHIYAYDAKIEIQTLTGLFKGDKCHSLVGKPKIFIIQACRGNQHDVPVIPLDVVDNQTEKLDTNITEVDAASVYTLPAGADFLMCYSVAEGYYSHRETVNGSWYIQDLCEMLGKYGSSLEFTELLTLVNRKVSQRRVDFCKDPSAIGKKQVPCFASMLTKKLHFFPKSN
# [13] = Luminescence Cell-Based Dose Retest to Confirm Inhibitors of Cancer Stem Cells. [Related pubchem assays (depositor defined):AID2717, AID2721]; type: functional; settings: Homo sapiens
# [14] = Fluorescence-based cell-based high throughput dose response assay for inhibitors of the interaction of nucleotide-binding oligomerization domain containing 2 (NOD2) and the receptor-interacting serine-threonine kinase 2 (RIPK2).; type: functional; settings: Homo sapiens
# [15] = general mammalian cell viability loss – activator set, cherry-pick, cytotoxicity control for miR-122 modulator project, dose response (AID 720690); type: functional, cell-based;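 note: HEK293T human cells scored for general mammalian cytotoxicity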
# [16] = activation of miR-122 Renilla sensor silencing – cell-based, Huh7 psiCHECK-miR122, Renilla luciferase, cherry-picked, dose response (AID 651956); type: functional;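 note: huh7 hepatoma cells stably carrying a psiCHECK-2 miR-122 sensor plasmid; renilla luciferase signal reporting endogenous miR-122 activity after 48 h compound exposure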
# [17] = general mammalian cell viability loss – inhibitor set, cherry-pick, set 2, cytotoxicity control for miR-122 modulator project, dose response (AID 720697); type: functional, cell-based
# [18] = biological target: Paired box protein Pax-8 (Homo sapiens, UniProt Q06710); experiment: PAX8 transcriptional activity inhibition in RMG-I – RMG-I cells, luciferase, cherry-pick, dose response (AID 687027); type: functional, cell-based;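 note: luciferase reporter driven by Pax8 target thyroperoxidase promoter measured by SteadyGlo luminescence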
# Chain of Paired box protein Pax-8 (Q06710 whole entry): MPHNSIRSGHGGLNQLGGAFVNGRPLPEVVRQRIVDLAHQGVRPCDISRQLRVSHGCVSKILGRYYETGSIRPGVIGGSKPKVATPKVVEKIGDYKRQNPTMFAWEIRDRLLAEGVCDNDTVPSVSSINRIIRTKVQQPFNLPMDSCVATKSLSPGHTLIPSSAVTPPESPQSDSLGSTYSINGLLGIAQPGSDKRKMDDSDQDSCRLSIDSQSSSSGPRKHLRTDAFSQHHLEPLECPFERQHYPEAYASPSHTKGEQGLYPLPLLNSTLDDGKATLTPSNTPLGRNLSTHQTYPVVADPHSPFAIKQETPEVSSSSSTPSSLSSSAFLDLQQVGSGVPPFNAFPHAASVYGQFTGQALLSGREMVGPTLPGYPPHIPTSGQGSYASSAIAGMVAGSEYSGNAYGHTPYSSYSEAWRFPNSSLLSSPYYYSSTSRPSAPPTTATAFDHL
# [19] = biological target: T6, Low molecular weight phosphotyrosine protein phosphatase (Homo sapiens, UniProt P24666); type: functional; settings: read-out: IC50_Mean
# T6 sequence (P24666 whole entry): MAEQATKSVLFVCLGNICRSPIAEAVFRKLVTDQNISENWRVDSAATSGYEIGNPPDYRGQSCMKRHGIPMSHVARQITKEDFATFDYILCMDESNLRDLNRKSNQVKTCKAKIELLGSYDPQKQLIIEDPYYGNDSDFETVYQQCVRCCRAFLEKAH
# [20] = biological target: T6, Low molecular weight phosphotyrosine protein phosphatase; type: functional; settings: read-out: IC50_Mean; remark: listed apart in the source
# T1 sequence (P63165 whole entry): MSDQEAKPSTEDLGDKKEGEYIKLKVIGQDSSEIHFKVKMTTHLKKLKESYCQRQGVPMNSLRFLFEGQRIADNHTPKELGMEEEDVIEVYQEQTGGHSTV
smiles,measurement,setting,value
COc1ccccc1-c1csc(-n2ncc(C#N)c2N)n1,IC50,[1],> 66.6 µM (inactive)
same,IC50,[2],> 59.6 µM (inactive)
same,IC50,[3],6.71 µM (active)
same,IC50,[4],> 59.6 µM (inactive)
CCc1nn(CC(=O)N2CCN(Cc3ccc4c(c3)OCO4)CC2)c(=O)c2cc3occc3n12,AC50,[5],1.01 µM (active)
Cc1ccc(S(=O)(=O)N(CC(=O)Nc2ccccc2C(=O)O)c2cccc(Cl)c2C)cc1,IC50,[6],24.7 µM (active)
same,IC50,[7],15.6 µM (active)
same,IC50,[8],41.1 µM (active)
same,IC50,[9],2.15 µM (active)
same,EC50,[10],41.2 µM (active)
Cc1ccc(NC(=O)CN(C)C(=O)Cn2ncc(Cl)c(Cl)c2=O)cc1,AC50,[11],9.16 µM (active)
same,AC50,[12],5.9 µM (active)
same,AC50,[13],4.54 µM (active)
same,IC50,[14],4.34 µM (active)
same,AC50,[15],3.57 µM (active)
same,AC50,[16],4.2 µM (active)
same,AC50,[17],8.04 µM (active)
same,AC50,[18],3.57 µM (active)
O=C(CN1CCN(c2ccccc2F)CC1)c1ccc2cc[nH]c2c1,IC50,[19],5.49 µM (active)
same,IC50,[20],14.6 µM (active)
Cc1c(OC(C)C(=O)NCc2ccccn2)ccc2c3c(c(=O)oc12)CCC3 (stereo unspecified),AC50,[5],6.05 µM (active)
